Results: patent publication US12521414B2, “Method for preventing or treating urological chronic pelvic pain syndrome” (priority 2022, dated 2026)

Test system: Human urothelial T24 cells
Experiment: WST-1 cell viability assay, 4-HC-induced loss of T24 viability
Format: cell-based
Details: 37.5 μM 4-HC for 4 h, WST-1 assay, n=3
Procedure: FIGS. 2A to 2D illustrate the CeNPs testing with human urothelial T24 cells in vitro. FIG. 2A illustrates that T24 cells were treated with 4-HC at concentrations of 0, 12.5, 25, 37.5, 50, 75, and 100 μM for 4 h (hours). Cell viability was examined utilizing the WST-1 assay (MK400, Takara, Mountain View, CA, USA).
FIG. 2B illustrates that 4-HC-induced loss of T24 viability was rescued by cerium oxide nanoparticle (CeNP) treatment (n=3). […] Fluorescence microscope images of the groups: (1) control group; (2) only 4-HC group: 37.5 μM 4-HC added for 4 h to induce cell oxidative stress; (3) CeNP treatment group: 5 μg/mL CeNPs were applied for 24 h before 4-h induction with 37.5 μM 4-HC; and (4) CeNP-only group: only 5 μg/mL CeNPs were applied for 24 h. […] Values are expressed as the mean±SD. Data were analyzed by one-way analysis of variance with Tukey's multiple comparisons test. *P<0.05, **P<0.01. n.s.: no statistical difference, (n=3).
Human urothelial T24 cells (#60062, BCRC, Taiwan) were cultured in 90% McCoy's 5a medium (Sigma, St. Louis, MO, USA) with 1.5 mM L-glutamine, 10% (v/v) fetal bovine serum, and 1% (v/v) PS. Cells were maintained at 37° C. in a humidified incubator containing 5% CO2 [6], and 4-HC was used to induce cellular oxidative stress. T24 cells were seeded into a 96-well plate at a density of 10^4 cells/well and incubated for 24 h until full adhesion was achieved. […]

Which “cell viability of T24 cells” value does the source give for `O=P1(N(CCCl)CCCl)NC(OO)CCO1` (stereo not shown) [4-HC, 4-hydroperoxycyclophosphamide] here?
Its value is “approximately 50%”.
